Reference: patent US12440471B2, “Compositions and methods for the treatment of bronchopulmonary dysplasia (BPD) and BPD-associated pulmonary hypertension” (AyuVis Research, Inc., priority 2021, dated 2025)
Like-named read-outs stand apart in the source and are kept apart here.

Columns and labels:
Format in all cases: in vivo
mice or rat pups = assay: Safety profile of AVR-48 in mice or rat pups (IV, SC, IN; MTD/NOAEL)
Experimental: (§1) Safety Profile of AVR-48. To assess the safety of AVR-48 (compound 8), two doses of intravenous (IV) slow bolus injections or subcutaneous (SC) injections or intranasal (IN) instillation were given to mice or rat pups (postnatal day 3-5 or P3-P5), >6 h apart. The total daily doses were up to 100 mg/kg/day IV, and up to 150 mg/kg/day SC, for 3 consecutive days. […] There was no change in any of the hematological or clinical chemistry parameters. Signs of discoloration, swelling, and macroscopic and microscopic signs of local irritation occurred at the site of administration in all treatment groups and were attributed to the administration vehicle (formulation of 10% DMSO, 20% Tetraglycol, and 20% PEG 400 in sterile water). […] Based on the parameters monitored in this study, the maximum tolerated dose (MTD) and no-observed-adverse-effect level (NOAEL) were considered to be 100 mg/kg/day via IV and 150 mg/kg/day via SC routes of dosing.
(§2) Animals. C57BL/6J mice were purchased from The Jackson Laboratory (Bar Harbor, ME, USA) and were maintained in a breeding colony at Drexel University, Philadelphia, PA, USA. Animal procedures were performed in accordance with the NIH Guide for the Care and Use of Laboratory Animals and were approved by the Institutional Animal Care and Use Committee (IACUC) of Drexel University Philadelphia, PA (Protocol No. 20706). Neonatal rat pups born from female pregnant Sprague Dawley Crl:CD (SD) rats (Charles River Laboratories, St-Constant, QC, Canada) were used for the toxicology and PK studies to evaluate safety, determine the maximum tolerated dose (MTD) and the PK profile of AVR-48. A minimum 6-day acclimation period was allowed between receipt of the animals and the start of treatment to accustom the rats to the laboratory environment. All rat studies were approved by the IACUC of ITR Laboratories, Canada (Protocol No. 74691).
(§3) Formulation of AVR-48 for efficacy and toxicokinetic studies. For the mouse dose response efficacy studies, AVR-48 was reconstituted in 0.9% sterile normal saline to give a final dose concentration of […] as a colorless solution, and injected IP (30 μl) on P2 and P4. The PLGA encapsulated AVR-48 or the GFP-tagged analog was resuspended in deionized sterile water to make a nanosuspension with final dose concentration of 0.025, 0.05 and 0.11 mg/kg/drop. The surfactant Curosurf® (Cheisi Parma, Italy), available commercially, was delivered IN at a volume of 3 μl per nostril, on P2 and P4. For the toxicokinetic study of AVR-48 in rat pups, a formulation of 10% DMSO, 20% tetraglycol, 20% PEG 400, and 50% sterile water was made fresh before administration (Shah, Das et al. 2021).
(§4) Statistical Analysis. All statistical analyses were performed using Graph Pad Prism version 7.0 (GraphPad Software, San Diego, CA). The data are expressed as the mean±SEM with n=5 to 7 mice in each group. Groups were compared with the two-tailed unpaired t-test and one- or two-way analysis of variance (ANOVA), as appropriate. P<0.05 was considered statistically significant. For the toxicology and PK study, a generalized Analysis of Variance/Covariance (ANOVA/ANCOVA) test was performed on the numerical data (3 or more animals/groups) on the study as follows: An automatic transformation was used to analyze the data for homogeneity of variance using Levene's test. Parametric and non-parametric trends were analyzed using the Williams and the Shirley-Williams tests, respectively. Homogeneous data was analyzed using the ANOVA/ANCOVA, and the significance of intergroup differences between the control and test item-treated groups was analyzed using Dunnett's test. Heterogeneous data was analyzed using Kruskal-Wallis test and the significance of intergroup differences between the control and test item-treated groups was assessed using a nonparametric Dunnett's test. All data are reported as ±SEM. […]

[1] = as above; conditions: C57BL/6J (mouse), Sprague Dawley Crl:CD (rat), mouse, rat, in vivo; for MTD at 3 days: read-out: maximum tolerated dose (MTD); for NOAEL at 3 days: read-out: no-observed-adverse-effect level (NOAEL)
Experimental: as §1, §2, §3, §4

pre-term lamb BPD model [2] = assay: Pre-term lamb BPD model: lung histopathology and radial alveolar count
Excerpt: Detailed methods have been published previously by Reyburn et al. and Null et al (Reyburn, Li et al. 2008, Null, Alvord et al. 2014), relevant portions incorporated herein by reference. All protocols have been adhered to APS/NIH guidelines for animal research and have been approved by the Institution Animal Care and Use Committees (IACUC) at the University of Utah. Lung injury in PT neonates, including PT lambs, that are mechanically ventilated (MV) is the classical picture of alveolar simplification. Alveolar simplification is evident as distended terminal respiratory units that have few secondary septa and thick, cellular mesenchyme.
The micrographs show terminal respiratory units (TRU) of the lung at the same magnification. […] Radial alveolar count is the number of tissue intersections across a terminal respiratory unit, from the center of the respiratory bronchiole to the perimeter of the terminal respiratory unit.

pre-term lamb BPD model [3] = assay: Pre-term lamb BPD model: plasma cytokines

With `CC(=O)N[C@@H]1C(Oc2ccc([N+](=O)[O-])cc2)OC(CO)C(O)C1O` (stereo partly shown) [AVR-48] the “toxic effects in the visceral organs” value (mice or rat pups; high dose of 100 mg/kg) was “did not have any toxic effects”, the “hematological or clinical chemistry parameters” value (mice or rat pups; in vivo) was “no change” and the therapeutic index (mice or rat pups; juvenile mouse, minimum efficacious dose 5 mg/kg/day vs NOAEL 100 mg/kg/day) was 20 fold. The “systemic gross observations at necropsy in the visceral organs” value (mice or rat pups; mouse and rat pups) was “no evidence of any AVR-48 related systemic gross observations”, the “white blood cell count, lymphocyte count (females only), total bilirubin (SC groups only)” value (mice or rat pups; treated animals, considered non-adverse, not dose dependent) was “slight decrease” and the injection site findings (mice or rat pups; twice daily IV at 50 mg/kg/dose vs vehicle IV) was “higher incidence of dermal/subcutaneous hemorrhage at the injection site”. For the same compound, the “tolerability of all doses” value (mice or rat pups; two doses/day >6 h apart, up to 100 mg/kg/day IV, up to 150 mg/kg/day SC, 3 consecutive days, P3-P5 pups) was “well tolerated”, the “adverse clinical signs and body weight” value (mice or rat pups; up to 100 mg/kg/day IV, up to 150 mg/kg/day SC, 3 days) was “no observed adverse clinical signs and or any change in body weight” and the MTD at 3 days ([1]; iv) was 100 mg/kg/day. The NOAEL at 3 days ([1]; iv) was 100 mg/kg/day, the MTD at 3 days ([1]; sc) was 150 mg/kg/day and the NOAEL at 3 days ([1]; sc) was 150 mg/kg/day. The “radial alveolar count / alveoli formation” value (pre-term lamb BPD model [2]; 3.0 mg/Kg, preliminary results) was “promotes alveoli formation”, the “alveolar simplification (lung histopathology)” value (pre-term lamb BPD model [2]; vs vehicle treated PT lamb) was “significantly improved” and the “IL-10 concentration in plasma” value (pre-term lamb BPD model [3]; early time points (1-4 days), 2/d for 7 days, vs vehicle) was “significantly decreased”. The “IL-6 concentration in plasma” value (pre-term lamb BPD model [3]; vs vehicle treated lambs after 10 days) was “significantly decreased”.
